In PubChem BioAssay (NCI):
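Tested at 5 concentrations; 48 h exposure; 96-well plates; endpoints linearly interpolated, else capped at highest concentration. The concentration for full growth arrest is given as TGI.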

Tests used:
Experiment in all cases: inhibition of tumour cell growth, NCI panel, 48 h
[1] = system: SW-620 colon
[2] = system: CAKI-1 renal
[3] = system: HCT-15 colon
[4] = system: HS 578T breast
[5] = system: IGROV1 ovarian
[6] = system: SNB-19 CNS
[7] = system: 786-0 renal
[8] = system: HL-60(TB) leukemia
[9] = system: SK-MEL-28 melanoma
[10] = system: U251 CNS
[11] = system: UACC-62 melanoma
[12] = system: LOX IMVI melanoma
[13] = system: BT-549 breast
[14] = system: MDA-MB-435
[15] = system: RPMI-8226 leukemia
[16] = system: HOP-62 NSCLC
[17] = system: SK-OV-3 ovarian
[18] = system: EKVX NSCLC
[19] = system: MOLT-4 leukemia
[20] = system: HOP-92 NSCLC

CCOC(=O)c1c(-c2ccccc2)nc2c(OC)nccn12
TGI [1]: > 100 µM
TGI [2]: > 100 µM
TGI [3]: > 100 µM
TGI [4]: > 100 µM
TGI [5]: > 100 µM
TGI [6]: > 100 µM
TGI [7]: > 100 µM
TGI [8]: > 100 µM
TGI [9]: > 100 µM
TGI [10]: > 100 µM
TGI [11]: > 100 µM
TGI [12]: > 100 µM
TGI [13]: > 100 µM
TGI [14]: > 100 µM
TGI [15]: > 100 µM
TGI [16]: > 100 µM
TGI [17]: > 100 µM
TGI [18]: > 100 µM
TGI [19]: > 100 µM

COc1ccc2nc3cc([N+](=O)[O-])ccc3c(Nc3ccc(S(=O)(=O)N=C(N)N)cc3)c2c1
TGI [1]: > 100 µM
TGI [2]: > 100 µM
TGI [3]: > 100 µM
TGI [4]: > 100 µM
TGI [6]: > 100 µM
TGI [7]: > 100 µM
TGI [8]: 31.3 µM
TGI [9]: > 100 µM
TGI [10]: > 100 µM
TGI [11]: 46.9 µM
TGI [20]: 77.8 µM
TGI [12]: > 100 µM
TGI [13]: > 100 µM
TGI [14]: > 100 µM
TGI [15]: 42.6 µM
TGI [16]: > 100 µM
TGI [17]: > 100 µM
TGI [18]: > 100 µM
TGI [19]: 14.7 µM

Cc1coc2c1C(=O)C(=O)c1c-2ccc2c1CCCC2(C)C
TGI [1]: 12.5 µM
TGI [2]: 5.15 µM
TGI [3]: 6.4 µM
TGI [4]: > 31.4 µM
TGI [5]: 29.7 µM
TGI [6]: 22.8 µM
TGI [7]: 8.62 µM
TGI [9]: 7.52 µM
TGI [10]: > 100 µM
TGI [11]: 3.32 µM
TGI [20]: > 100 µM
TGI [12]: 1.9 µM
TGI [13]: 9.28 µM
TGI [14]: 2.88 µM
TGI [15]: > 33.9 µM
TGI [16]: 12.1 µM
TGI [17]: > 100 µM
TGI [18]: > 100 µM
TGI [19]: > 100 µM

O=[N+]([O-])C(=C(N1CCCCC1)N1CCCCC1)/C(Cl)=C(\Cl)[N+](=O)[O-]
TGI [1]: 28.7 µM
TGI [2]: 2.83 µM
TGI [3]: 5.48 µM
TGI [4]: 11.6 µM
TGI [5]: 3.29 µM
TGI [6]: 36 µM
TGI [7]: 10.2 µM
TGI [9]: 37.3 µM
TGI [10]: 46 µM
TGI [11]: 29.2 µM
TGI [20]: 6.6 µM
TGI [12]: 5.13 µM
TGI [13]: 19 µM
TGI [14]: 19.3 µM
TGI [15]: 13.7 µM
TGI [16]: 31.4 µM
TGI [17]: > 59.8 µM
TGI [18]: 30 µM

O=[N+]([O-])c1ccc(N/N=C(\c2ccccc2)c2ccccn2)nc1
TGI [1]: > 77.1 µM
TGI [2]: 29.1 µM
TGI [3]: > 28.5 µM
TGI [4]: 26 µM
TGI [5]: 20.5 µM
TGI [6]: > 42.5 µM
TGI [7]: 23.4 µM
TGI [8]: 31.7 µM
TGI [9]: > 100 µM
TGI [10]: > 81.8 µM
TGI [11]: > 54.3 µM
TGI [20]: 43.8 µM
TGI [13]: 87.1 µM
TGI [14]: > 95.3 µM
TGI [15]: > 100 µM
TGI [16]: 31.2 µM
TGI [17]: 24 µM
TGI [18]: 17.3 µM
TGI [19]: > 67.2 µM

CC1OC(OC2C(CO)OC(O[C@H]3CC[C@@]4(C)C(=CC[C@H]5[C@@H]6C[C@@H]7O[C@](O)(CC[C@H](CO)COC8OC(CO)C(O)C(O)C8O)[C@@H](C)[C@@H]7[C@@]6(C)CC[C@@H]54)C3)C(OC3OC(C)C(O)C(O)C3O)C2O)C(O)C(O)C1O (some centres undefined)
TGI [1]: > 100 µM
TGI [2]: > 100 µM
TGI [3]: > 100 µM
TGI [4]: > 100 µM
TGI [5]: > 100 µM
TGI [6]: > 100 µM
TGI [7]: > 100 µM
TGI [9]: > 100 µM
TGI [10]: > 100 µM
TGI [11]: > 100 µM
TGI [20]: > 100 µM
TGI [12]: > 100 µM
TGI [13]: > 100 µM
TGI [14]: > 100 µM
TGI [15]: > 100 µM
TGI [16]: > 100 µM
TGI [17]: > 100 µM
TGI [18]: > 100 µM
TGI [19]: > 100 µM

CN(C)C(=S)N/N=C(\C(=N/NC(=S)N(C)C)c1ccccn1)c1ccccn1
TGI [1]: 29.9 µM
TGI [2]: 34.1 µM
TGI [3]: 31.6 µM
TGI [4]: > 46 µM
TGI [5]: 27.1 µM
TGI [6]: 31.8 µM
TGI [7]: 27 µM
TGI [9]: 34.4 µM
TGI [10]: 20.4 µM
TGI [11]: 32.8 µM
TGI [20]: 22.1 µM
TGI [12]: > 100 µM
TGI [13]: 35.5 µM
TGI [14]: 26 µM
TGI [15]: > 100 µM
TGI [16]: 38.7 µM
TGI [17]: 30.4 µM
TGI [18]: 36.7 µM

C/C=C1\CNC1C(=O)O (centres undefined)
TGI [1]: > 100 µM
TGI [2]: > 100 µM
TGI [3]: > 100 µM
TGI [4]: > 100 µM
TGI [5]: > 100 µM
TGI [6]: > 100 µM
TGI [7]: > 100 µM
TGI [8]: > 100 µM
TGI [9]: > 100 µM
TGI [11]: > 100 µM
TGI [20]: > 100 µM
TGI [12]: > 100 µM
TGI [13]: > 100 µM
TGI [14]: > 100 µM
TGI [15]: > 100 µM
TGI [16]: > 100 µM
TGI [17]: > 100 µM
TGI [18]: > 100 µM

OCCCc1cc(O)c2c(c1)C(CO)C(c1ccc(O)c(O)c1)O2 (centres undefined)
TGI [1]: > 100 µM
TGI [2]: > 100 µM
TGI [3]: > 100 µM
TGI [4]: > 100 µM
TGI [5]: > 100 µM
TGI [6]: > 100 µM
TGI [7]: > 100 µM
TGI [8]: > 100 µM
TGI [9]: > 100 µM
TGI [10]: > 100 µM
TGI [11]: > 100 µM
TGI [20]: > 100 µM
TGI [12]: > 100 µM
TGI [13]: > 100 µM
TGI [14]: > 100 µM
TGI [16]: > 100 µM
TGI [17]: > 100 µM
TGI [18]: > 100 µM
TGI [19]: > 100 µM

CS/C(=N\S(=O)(=O)c1cc(C)c(Cl)cc1Cl)NNc1cnc2ccccc2n1
TGI [1]: > 100 µM
TGI [2]: > 100 µM
TGI [3]: > 100 µM
TGI [4]: > 100 µM
TGI [5]: > 100 µM
TGI [6]: > 100 µM
TGI [7]: > 100 µM
TGI [8]: > 100 µM
TGI [9]: > 100 µM
TGI [10]: > 100 µM
TGI [11]: > 100 µM
TGI [20]: > 100 µM
TGI [12]: > 100 µM
TGI [13]: > 100 µM
TGI [14]: > 100 µM
TGI [16]: > 100 µM
TGI [17]: > 100 µM
TGI [18]: > 100 µM
TGI [19]: > 100 µM

COC(=O)/C(=N\NC(=S)NN)C(C(=O)OC)C(=O)C(=O)Nc1cccc(C(F)(F)F)c1 (centres undefined)
TGI [1]: > 100 µM
TGI [2]: > 100 µM
TGI [3]: > 100 µM
TGI [4]: > 100 µM
TGI [5]: > 100 µM
TGI [6]: > 100 µM
TGI [7]: > 100 µM
TGI [8]: > 100 µM
TGI [9]: > 100 µM
TGI [10]: > 100 µM
TGI [11]: > 100 µM
TGI [20]: > 100 µM
TGI [12]: > 100 µM
TGI [13]: > 100 µM
TGI [14]: > 100 µM
TGI [15]: > 100 µM
TGI [16]: > 100 µM
TGI [17]: > 100 µM
TGI [18]: > 100 µM

CC(C)(C)OC(=O)CC(NC(=O)OC(C)(C)C)C(=O)NC(C(=O)O)C(O)c1ccccc1 (centres undefined)
TGI [1]: > 100 µM
TGI [2]: > 100 µM
TGI [3]: > 100 µM
TGI [4]: > 100 µM
TGI [5]: > 100 µM
TGI [6]: > 100 µM
TGI [7]: > 100 µM
TGI [9]: > 100 µM
TGI [10]: > 100 µM
TGI [11]: > 100 µM
TGI [12]: > 100 µM
TGI [13]: > 100 µM
TGI [14]: > 100 µM
TGI [15]: > 100 µM
TGI [16]: > 100 µM
TGI [17]: > 100 µM
TGI [18]: > 100 µM
TGI [19]: > 100 µM
